Here are results for 19 compounds from PubChem BioAssay (NCI).

Some test systems named below: BT-549 breast; PC-3 prostate; MCF7 breast; MDA-MB-231 breast.
Test in all cases: NCI-60 cell line screen, 48 h

Values joined by “and” are separate entries in the source; they are usually repeats but may differ in a detail not shown here. Identical values can stand only once.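 A five-concentration, 48-hour dose response in 96-well plates underlies each endpoint, interpolated linearly between surrounding concentrations. GI50 marks 50% less growth. TGI marks complete inhibition of growth.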

As for `O=c1oc2cc(N=Cc3ccccc3Cl)ccc2c2ccccc12`, the TGI in the test on BT-549 breast, in the test with PC-3 prostate, in the test with MCF7 breast and with MDA-MB-231 breast was greater than 100 µM in each case.
Take `COc1ccc(C(C#N)NC23CC4CC(CC(C4)C2)C3)cc1OC` (centres undefined): the TGI in the test on BT-549 breast, in the test on PC-3 prostate, with MCF7 breast and with MDA-MB-231 breast was greater than 100 µM in each case.
`COc1ccc(-c2nn(-c3ccc(NC(=O)c4ccc(Cl)c(C(F)(F)F)c4)cc3)cc2-c2ccncc2)cc1Cl`: the GI50 is 1.16 µM in the test on BT-549 breast, 0.669 µM in the test with PC-3 prostate, 1.59 µM in the test with MCF7 breast and 0.317 µM with MDA-MB-231 breast. Also, the TGI with BT-549 breast is 96.9 µM; with PC-3 prostate, greater than 100 µM; with MCF7 breast it was greater than 100 µM; in the test with MDA-MB-231 breast, 1.35 µM.
With `O=C(/C=C/c1ccccc1)c1c[nH]c2ccccc2c1=O`, the GI50 in the test on BT-549 breast is 4.84 µM; with PC-3 prostate, 5.63 µM; with MCF7 breast, 2.33 µM; in the test with MDA-MB-231 breast, 4.22 µM. Moreover, the TGI stood at 17.8 µM in the test with BT-549 breast, 33.1 µM with PC-3 prostate, 12.6 µM with MCF7 breast and 18.7 µM in the test with MDA-MB-231 breast.
As to `Oc1c(C(Nc2cccc3ccccc23)c2ccccc2)ccc2cccnc12` (centres undefined), the GI50 in the test on BT-549 breast is 2.07 µM; in the test on PC-3 prostate, 5.16 µM; with MCF7 breast it was 3.2 µM; in the test with MDA-MB-231 breast it was 12 µM. The TGI in the test on BT-549 breast was 14.5 µM; in the test on PC-3 prostate, greater than 100 µM; in the test on MCF7 breast, greater than 100 µM; in the test with MDA-MB-231 breast, 70.8 µM.
`N#CC(C#N)=Cc1c(-c2ccccc2)[nH]c2ccccc12`: the GI50 with BT-549 breast is 8.45 µM; with PC-3 prostate it was 2.9 µM; in the test with MCF7 breast, 1.07 µM; with MDA-MB-231 breast, 1.42 µM. In addition, the TGI was greater than 100 µM with BT-549 breast, greater than 70.8 µM in the test on PC-3 prostate, greater than 47.2 µM with MCF7 breast and 30.3 µM in the test with MDA-MB-231 breast.
Turning to `Cc1cc(=O)oc2c(CN3CCCCC3)c(O)ccc12`, the TGI with BT-549 breast, with PC-3 prostate, in the test with MCF7 breast and in the test on MDA-MB-231 breast was greater than 100 µM throughout.
Regarding `O=C(COc1ccc(/C=C2\Oc3ccccc3C2=O)cc1)Nc1nccs1`, the GI50 is 18.5 µM in the test on BT-549 breast, 38.1 µM in the test on PC-3 prostate, 43.2 µM in the test with MCF7 breast and 33.4 µM in the test with MDA-MB-231 breast. For the same compound, the TGI in the test with BT-549 breast is 96.9 µM; in the test with PC-3 prostate it was greater than 100 µM; in the test on MCF7 breast it was greater than 100 µM; with MDA-MB-231 breast it was greater than 100 µM.
For the compound `COc1cc2ccccc2c2cc([N+](=O)[O-])oc12`, the TGI in the test with BT-549 breast is 7.16 µM; in the test with PC-3 prostate, greater than 100 µM; with MCF7 breast it was 15.8 µM; in the test with MDA-MB-231 breast, 5.8 µM.
As for `Cc1oc2nc[nH]c(=O)c2c1C(=O)/C=C/c1ccc(Cl)cc1`, the GI50 in the test with BT-549 breast is 2.24 µM; with PC-3 prostate, 2.49 µM; in the test with MCF7 breast, 1.39 µM; in the test on MDA-MB-231 breast, 2.64 µM. For the same compound, the TGI worked out at 6.55 µM in the test with BT-549 breast, 8.76 µM in the test on PC-3 prostate, 12.3 µM in the test on MCF7 breast and 14.6 µM in the test with MDA-MB-231 breast.
Regarding `CC(=O)Nc1ccc(-c2c3nc(c(-c4cc5ccccc5[n+](C)c4)c4ccc([nH]4)c(-c4ccc(NC(C)=O)cc4)c4nc(c(-c5cc6ccccc6[n+](C)c5)c5ccc2[nH]5)C=C4)C=C3)cc1`, the GI50 in the test with BT-549 breast is 17 µM; in the test with PC-3 prostate it was 15.1 µM; with MCF7 breast, 34.3 µM; with MDA-MB-231 breast it was 8.1 µM. The TGI is greater than 50 µM with BT-549 breast, greater than 50 µM in the test with PC-3 prostate, greater than 50 µM in the test on MCF7 breast and 29.7 µM with MDA-MB-231 breast.
As for `O=C1c2ccccc2NC(c2cc(Cl)cc(Cl)c2O)N1CCc1ccccn1` (centres undefined), the TGI with BT-549 breast, in the test on PC-3 prostate, with MCF7 breast and in the test on MDA-MB-231 breast was greater than 100 µM throughout.
For `CC(C)(C)[Si](C)(C)OCC1CCC(n2cnc3c(=O)[nH]cnc32)O1` (centres undefined), the TGI with PC-3 prostate, in the test on MCF7 breast and in the test on MDA-MB-231 breast was greater than 100 µM in each case.
Take `CC(N=C(N)N)C(=O)O` (centres undefined): the TGI with BT-549 breast, in the test on PC-3 prostate, in the test on MCF7 breast and in the test with MDA-MB-231 breast was greater than 100 µM in each case.
Turning to `CN(Cc1cnc(N)nc1N)c1ccc(C(=O)O)cc1`, the GI50 with BT-549 breast, with PC-3 prostate, in the test on MCF7 breast and in the test with MDA-MB-231 breast was greater than 100 µM throughout. Also, the TGI with BT-549 breast, in the test on PC-3 prostate, in the test with MCF7 breast and with MDA-MB-231 breast was greater than 100 µM throughout.
Consider `COc1cc(NS(C)(=O)=O)ccc1Nc1c2ccccc2nc2c(C)cccc12`, for which the GI50 was 0.412 µM and 0.394 µM in the test on BT-549 breast; 0.629 µM and 1.05 µM in the test on PC-3 prostate; 0.0248 µM and 0.0337 µM in the test with MCF7 breast; 1.73 µM and 2.88 µM in the test on MDA-MB-231 breast. The TGI was 4.62 µM and 2.86 µM in the test with BT-549 breast; 18.6 µM and 25.5 µM with PC-3 prostate; 4.42 µM and 11.9 µM in the test with MCF7 breast; 7.01 µM and 15.3 µM in the test with MDA-MB-231 breast.
For `COc1cccc(C(=O)Nc2ccc(CN3CCc4nc5cc(OC)c(OC)cc5cc43)cc2)c1`, the GI50 with BT-549 breast was 5.32 µM; in the test with PC-3 prostate it was 3.14 µM; in the test on MCF7 breast, 3.19 µM; in the test with MDA-MB-231 breast it was 2.59 µM. Also, the TGI is 22.8 µM in the test with BT-549 breast, greater than 100 µM in the test on PC-3 prostate, 20.5 µM with MCF7 breast and 11 µM in the test with MDA-MB-231 breast.
Take `CN(CCC#N)c1ccc(/C=C(\C#N)c2cccc(C(F)(F)F)c2)cc1`: the GI50 was 3.28 µM in the test with BT-549 breast, 4.07 µM with PC-3 prostate, 0.544 µM in the test with MCF7 breast and 4.56 µM in the test with MDA-MB-231 breast. Moreover, the TGI is 34.3 µM in the test with BT-549 breast, greater than 100 µM in the test with PC-3 prostate, greater than 100 µM in the test on MCF7 breast and greater than 100 µM in the test on MDA-MB-231 breast.
As for `O=C(CCN1CCOCC1)Nc1ccc(F)cc1F`, the TGI in the test with BT-549 breast, in the test with PC-3 prostate, in the test with MCF7 breast and in the test with MDA-MB-231 breast was greater than 100 µM throughout.
